Data taken from patent US8062671B2, “Oily skin preparation for external use” (Shiseido Co., Ltd., priority 2003, dated 2011).

The compounds below were run against urokinase (UK) (Homo sapiens, UniProt P00749) (assay: Measuring method of UK blocking rate (S2444 substrate, absorbance 405 nm)). Conditions: ion concentration 100 ppm; Tris-HCl buffer pH7.5.
Format: biochemical
Description: About the complex powder of this invention, zinc oxide elutes zinc ion and inactivates plasminogen activator. UK is a kind of plasminogen activator. Measuring method of UK blocking rate. […] Thereafter, 20 μL of 12% trichloroacetic acid solution is added to stop the reaction, and powder is filtered. Absorbance of the filtrate at 405 nm is measured to obtain UK activity in an assessment system and UK blocking rate of the sample is calculated.

Row | UK blocking rate (%) | SMILES
1 | 16% | [Al+3] [Al^3+]
2 | 0% | [Ca+2] [Ca^2+]
3 | 5% | [Ce+3] [Ce^3+]
4 | 36% | [Cu+2] [Cu^2+]
5 | 0% | [K+] [K^+]
6 | 0% | [Li+] [Li^+]
7 | 0% | [Mg+2] [Mg^2+]
8 | 0% | [Mn+2] [Mn^2+]
9 | 0% | [Na+] [Na^+]
10 | 52% | [Zn+2] [Zn^2+, zinc ion]
11 | 45% | [Zr+4] [Zr^4+]

Row | SMILES | UK blocking rate (%)
12 | [Ba+2] [Ba^2+] | 0%
13 | [Co+2] [Co^2+] | 27%
14 | [Ni+2] [Ni^2+] | 30%
